Results published in US20170129916A1, “NOVEL BETULINIC PROLINE IMIDAZOLE DERIVATIVES AS HIV INHIBITORS” (HETERO RESEARCH FOUNDATION, priority 2014, published 2017).

Key:
[1] = system: HIV-1 strains, for e.g., 92HT599; assay: Antiviral activity: p24 estimation in MT-2 cells infected with HIV-1; assay type: cell-based; conditions: Human immunodeficiency virus 1, MT2; MT-2 cells infected with HIV-1, p24, ~96 hours; read-out: Antiviral activity IC50 (nM) Efficacy IC50
Experimental: MT-2 cells were infected with required number of TCID50's of HIV-1 strains, for e.g., 92HT599. The infected cells were plated at the concentration of 30, 000 cells per well in a 96 well plate. Test compound was added to the 96 well plate with the final concentration of DMSO (vehicle—not more than 1%). The plates are then incubated in a CO2 incubator for ˜96 hours (˜4 days) for viral infection. At the end of incubation period an aliquot from each well was taken for p24 estimation. The quantitation of p24 is an estimated index for antiviral activity of the compound. Percent inhibition was calculated with reference to control values (vehicle controls).
p-24 estimation was carried out using Advance biosciences kit as per the procedure detailed by supplier.

[2] = Single dose oral pharmacokinetic study; assay type: in vivo; conditions: mouse, mice, 30 mg/kg, plasma; for AUC(0-t): read-out: Mice oral PK @30 mg/kg AUC 0-t; for Cmax: read-out: Mice oral PK @30 mg/kg Cmax
Experimental: The test item was administered through oral route to animals (rat/mice) at 30 mg/kg dose in a suitable vehicle at 10 ml/kg dose volume. Blood samples (˜50 uL at each time point) were collected from retro-orbital plexus using K3 EDTA as anticoagulant in eppend; orf tubes at defined time intervals under light ether anesthesia. The samples were centrifuged at 3500×g to separate plasma and stored at −80° C. until analysis.
Sample analysis: Test samples were analyzed using LC-MS-MS after developing fit-for-purpose method for each of test compound.

Q: For C=C(C)[C@@H]1CC[C@]2(C(=O)N3C[C@H](OCCOC)C[C@H]3c3nc(-c4ccccc4)c[nH]3)CC[C@]3(C)[C@H](CC[C@@H]4[C@@]5(C)CC[C@H](OC(=O)[C@H]6C[C@@H](C(=O)O)C6(C)C)C(C)(C)[C@@H]5CC[C@]43C)[C@@H]12 [Compound 7, (1R,3S)-3-((((1R,3aS,5aR,5bR,7aR,9S,11aR,11b,13aR,13bR)-3a-((2S,4R)-4-(2-methoxyethoxy)-2-(4-phenyl-1H-imidazol-2-yl)pyrrolidine-1-carbonyl)-5a,5b,8,8,11a-pentamethyl-1-(prop-1-en-2-yl)icosahydro-1H-cyclopenta[a]chrysen-9-yl)oxy)carbonyl)-2,2-dimethylcyclobutane-1-carboxylic acid], which IC50 [1] is on record?
A: 5.5 nM

Q: And the AUC(0-t) [2]?
A: 342 µg·h/mL

Q: And the Cmax [2]?
A: 12800 ng/mL

Q: What does the source list for C=C(C)[C@@H]1CC[C@]2(C(=O)N3C[C@H](OCCOC)C[C@H]3c3nc(-c4cccc(F)c4)c[nH]3)CC[C@]3(C)[C@H](CC[C@@H]4[C@@]5(C)CC[C@H](OC(=O)[C@H]6C[C@@H](C(=O)O)C6(C)C)C(C)(C)[C@@H]5CC[C@]43C)[C@@H]12 [Compound 8, (11R,3S)-3-((((1R,3aS,5aR,5bR,7aR,9S,11aR,11bR,13aR,13bR)-3a-((2S,4R)-2-(4-(3-fluorophenyl)-1H-imidazol-2-yl)-4-(2-methoxyethoxy)pyrrolidine-1-carbonyl)-5a,5b,8,8,11a-pentamethyl-1-(prop-1-en-2-yl)icosahydro-1H-cyclopenta[a]chrysen-9-yl)oxy)carbonyl)-2,2-dimethylcyclobutane-1-carboxylic acid]?
A: IC50 [1]: 61.1 nM; AUC(0-t) [2]: 1240 µg·h/mL; Cmax [2]: 41300 ng/mL

Q: For C=C(C)[C@@H]1CC[C@]2(C(=O)N3C[C@H](OCCOC)C[C@H]3c3nc(-c4cccnc4)c[nH]3)CC[C@]3(C)[C@H](CC[C@@H]4[C@@]5(C)CC[C@H](OC(=O)[C@H]6C[C@@H](C(=O)O)C6(C)C)C(C)(C)[C@@H]5CC[C@]43C)[C@@H]12 [Compound 10, (1R,3S)-3-((((1R,3aS,5aR,5bR,7aR,9S,11bR,11bR,13aR,13bR)-3a-((2S,4R)-4-(2-methoxyethoxy)-2-(4-(pyridin-3-yl)-1H-imidazol-2-yl)pyrrolidine-1-carbonyl)-5a,5b,8,8,11a-pentamethyl-1-(prop-1-en-2-yl)icosahydro-1H-cyclopenta[a]chrysen-9-yl)oxy)carbonyl)-2,2-dimethylcyclobutane-1-carboxylic acid], which IC50 [1] is on record?
A: 2.82 nM

Q: And the AUC(0-t) [2]?
A: 301 µg·h/mL

Q: What about the Cmax [2] of the same molecule?
A: 17900 ng/mL

Q: Which IC50 [1] does the source give for C=C(C)[C@@H]1CC[C@]2(C(=O)N3CCC[C@H]3c3nnc(-c4ccccc4)o3)CC[C@]3(C)[C@H](CC[C@@H]4[C@@]5(C)CC[C@H](OC(=O)[C@H]6C[C@@H](C(=O)O)C6(C)C)C(C)(C)[C@@H]5CC[C@]43C)[C@@H]12 [Compound 11, (1R,3S)-2,2-dimethyl-3-((((1R,3aS,5aR,5bR,7aR,9S,11aR,11bR,13aR,13bR)-5a,5b,8,8,11a-pentamethyl-3a-((S)-2-(5-phenyl-1,3,4-oxadiazol-2-yl)pyrrolidine-1-carbonyl)-1-(prop-1-en-2-yl)icosahydro-1H-cyclopenta[a]chrysen-9-yl)oxy)carbonyl)cyclobutane-1-carboxylic acid] here?
A: 5.96 nM

Q: And the AUC(0-t) [2]?
A: 403 µg·h/mL

Q: What about the Cmax [2] of the same molecule?
A: 16300 ng/mL

Q: Which IC50 [1] does the source give for C=C(C)[C@@H]1CC[C@]2(C(=O)N3CCC[C@H]3c3nc(C(C)(C)C)co3)CC[C@]3(C)[C@H](CC[C@@H]4[C@@]5(C)CC[C@H](OC(=O)[C@H]6C[C@@H](C(=O)O)C6(C)C)C(C)(C)[C@@H]5CC[C@]43C)[C@@H]12 [Compound 12, (1R,3S)-3-((((1R,3aS,5aR,5bR,7aR,9S,11aR,11bR,13aR,13bR)-3a-((S)-2-(4-(tert-butyl)oxazol-2-yl)pyrrolidine-1-carbonyl)-5a,5b,8,8,11a-pentamethyl-1-(prop-1-en-2-yl)icosahydro-1H-cyclopenta[a]chrysen-9-yl)oxy)carbonyl)-2,2-dimethylcyclobutane-1-carboxylic acid] here?
A: 139 nM

Q: What about the AUC(0-t) [2] of the same molecule?
A: 395 µg·h/mL

Q: What about the Cmax [2] of the same molecule?
A: 13200 ng/mL

Q: Which IC50 [1] does the source give for C=C(C)[C@@H]1CC[C@]2(C(=O)N3CCC[C@H]3c3nc(C(C)C)c[nH]3)CC[C@]3(C)[C@H](CC[C@@H]4[C@@]5(C)CC[C@H](OC(=O)[C@H]6C[C@@H](C(=O)O)C6(C)C)C(C)(C)[C@@H]5CC[C@]43C)[C@@H]12 [Compound 14, (1R,3S)-3-((((1R,3aS,5aR,5bR,7aR,9S,11aR,11bR,13aR,13bR)-3a-((S)-2-(4-isopropyl-1H-imidazol-2-yl)pyrrolidine-1-carbonyl)-5a,5b,8,8,11a-pentamethyl-1-(prop-1-en-2-yl)icosahydro-1H-cyclopenta[a]chrysen-9-yl)oxy)carbonyl)-2,2-dimethylcyclobutane-1-carboxylic acid] here?
A: 0.138 nM

Q: And the AUC(0-t) [2]?
A: 437 µg·h/mL

Q: What about the Cmax [2] of the same molecule?
A: 19600 ng/mL

Q: Which IC50 [1] does the source give for C=C(C)[C@@H]1CC[C@]2(C(=O)N3CCC[C@H]3c3ncc(-c4ccccc4)o3)CC[C@]3(C)[C@H](CC[C@@H]4[C@@]5(C)CC[C@H](OC(=O)[C@H]6C[C@@H](C(=O)O)C6(C)C)C(C)(C)[C@@H]5CC[C@]43C)[C@@H]12 [Compound 15, (1R,3S)-2,2-dimethyl-3-((((1R,3aS,5aR,5bR,7aR,9S,11aR,11bR,13aR,13bR)-5a,5b,8,8,11a-pentamethyl-3a-((S)-2-(5-phenyloxazol-2-yl)pyrrolidine-1-carbonyl)-1-(prop-1-en-2-yl)icosahydro-1H-cyclopenta[a]chrysen-9-yl)oxy)carbonyl)cyclobutane-1-carboxylic acid] here?
A: 124 nM

Q: And the AUC(0-t) [2]?
A: 208 µg·h/mL

Q: What about the Cmax [2] of the same molecule?
A: 6510 ng/mL

Q: With C=C(C)[C@@H]1CC[C@]2(C(=O)N3CCC[C@H]3c3ncc(C(C)(C)C)o3)CC[C@]3(C)[C@H](CC[C@@H]4[C@@]5(C)CC[C@H](OC(=O)[C@H]6C[C@@H](C(=O)O)C6(C)C)C(C)(C)[C@@H]5CC[C@]43C)[C@@H]12 [Compound 16, (1R,3S)-3-((((1R,3aS,5aR,5bR,7aR,9S,11aR,11bR,13aR,13bR)-3a-((S)-2-(5-(tert-butyl)oxazol-2-yl)pyrrolidine-1-carbonyl)-5a,5b,8,8,11a-pentamethyl-1-(prop-1-en-2-yl)icosahydro-1H-cyclopenta[a]chrysen-9-yl)oxy)carbonyl)-2,2-dimethylcyclobutane-1-carboxylic acid] as the molecule, how does the IC50 [1] read?
A: 103 nM

Q: And the AUC(0-t) [2]?
A: 229 µg·h/mL

Q: What about the Cmax [2] of the same molecule?
A: 7890 ng/mL

Q: With C=C(C)[C@@H]1CC[C@]2(C(=O)N3CCC[C@H]3c3nc(-c4ccccc4)co3)CC[C@]3(C)[C@H](CC[C@@H]4[C@@]5(C)CC[C@H](OC(=O)[C@H]6C[C@@H](C(=O)O)C6(C)C)C(C)(C)[C@@H]5CC[C@]43C)[C@@H]12 [Compound 17, (1R,3S)-2,2-dimethyl-3-((((1R,3aS,5aR,5bR,7aR,9S,11aR,11bR,13aR,13bR)-5a,5b,8,8,11a-pentamethyl-3a-((S)-2-(4-phenyloxazol-2-yl)pyrrolidine-1-carbonyl)-1-(prop-1-en-2-yl)icosahydro-1H-cyclopenta[a]chrysen-9-yl)oxy)carbonyl)cyclobutane-1-carboxylic acid] as the molecule, how does the IC50 [1] read?
A: 58.6 nM

Q: What about the AUC(0-t) [2] of the same molecule?
A: 219 µg·h/mL

Q: And the Cmax [2]?
A: 7090 ng/mL
